# Patent publication US20130039928A1, “COMPOSITIONS AND METHODS FOR REVERSING CORTICOSTEROID RESISTANCE OR TREATING RESPIRATORY INFECTIONS” (priority 2010, published 2013)
# System: Pseudomonas aeruginosa
# Assay: Bacterial clearance by THP-1 macrophages
# Format: cell-based
# Conditions: after exposure with Poly(I) (10 μg/ml)
# Excerpt: The above data collectively indicate that the activation of Nrf2 improves bacterial phagocytosis and clearance by COPD macrophages. The dependence of Nrf2 on bacterial phagocytosis was investigated. […] This observations confirmed Nrf2-dependent modulation of bacterial phagocytosis and clearance. To determine the mechanisms by which Nrf2 regulates phagocytosis, microarray analysis was employed. […] To address whether sulforaphane-induced expression of MARCO correlates with bacterial clearance, differentiated human THP-1 macrophages were used. Bacterial clearance by sulforaphane treated THP-1 macrophages after exposure with polyinosinic acid (Poly(I)) was analyzed. Poly(I) is a non-selective class A scavenger receptor blocker that inhibits MARCO mediated bacterial uptake and clearance (G. M. DeLoid, T. H. Sulahian, A. Imrich, L. Kobzik, PLoS One 4, e6209 (2009)). […] Next, phagocytosis of FITC-Pseudomonas aeruginosa was examined in THP-1 macrophages with knockdown of MARCO using lentivirus-encoded shRNA (MARCO shRNA).
# BMDM were isolated by culturing bone marrow cells in the presence of 10 ng/ml granulocyte-macrophage colony-stimulating factor (PeproTech) for 7 days. Murine macrophages were cultured in RPMI 1640 medium supplemented with 10% FBS and 1% penicillin-streptomycin. […]
substance,measurement,value
polyinosinic acid [Poly(I)],bacterial clearance by sulforaphane treated THP-1 macrophages,significantly impaired sulforaphane ability to improve bacterial clearance
